From patent US20240287076A1, “COMPOUNDS FOR TARGETING DEGRADATION OF BRUTON'S TYROSINE KINASE” (BIOGEN MA INC., priority 2021, published 2024)

Target: T1, BTK (Homo sapiens, UniProt Q06187)
T1 construct: The GM01501.3 cell line endogenously expresses BTK with a HiBiT fusion tag via CRISPR knock-in at its C-terminal region; endogenous in cells; host or cells: GM01501.3 (GM01501 cells engineered by CRISPR knock-in of HiBiT at the BTK locus)
Assay: BTK degradation assay using the HiBiT Method (Nano-Glo HiBiT Lytic Assay, GM01501.3 cells)
Format: cell-based
Settings: HiBiT Degradation on GM01501.3 BTK @ 6 hours
Method in brief: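 Degradation read-out: HiBiT luminescence after lytic reagent addition, giving DC50. Compounds dosed from 10 μM in 11 half-log steps (duplicate) onto GM01501.3 cells, whose endogenous BTK carries a C-terminal HiBiT knock-in tag; 6 h exposure, 37 °C, 5% CO2.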

T1 sequence (Q06187 whole entry, the tested form may be a part): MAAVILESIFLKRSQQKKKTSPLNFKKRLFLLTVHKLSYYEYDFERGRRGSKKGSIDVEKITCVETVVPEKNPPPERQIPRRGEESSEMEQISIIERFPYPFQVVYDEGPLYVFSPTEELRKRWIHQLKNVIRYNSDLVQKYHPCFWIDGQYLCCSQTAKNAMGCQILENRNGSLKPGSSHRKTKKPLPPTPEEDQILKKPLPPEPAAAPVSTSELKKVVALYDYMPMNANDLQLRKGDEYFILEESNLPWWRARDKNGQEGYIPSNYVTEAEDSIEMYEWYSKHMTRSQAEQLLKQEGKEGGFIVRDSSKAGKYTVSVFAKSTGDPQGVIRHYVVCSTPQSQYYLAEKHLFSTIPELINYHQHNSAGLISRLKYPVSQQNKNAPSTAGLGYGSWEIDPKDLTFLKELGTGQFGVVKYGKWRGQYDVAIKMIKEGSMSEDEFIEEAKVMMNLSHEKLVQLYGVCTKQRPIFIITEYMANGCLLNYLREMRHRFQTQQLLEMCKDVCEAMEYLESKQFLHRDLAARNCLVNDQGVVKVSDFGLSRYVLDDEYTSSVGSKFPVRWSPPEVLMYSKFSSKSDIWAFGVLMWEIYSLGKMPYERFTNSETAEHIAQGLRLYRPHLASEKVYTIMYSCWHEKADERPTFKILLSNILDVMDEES

DC50 | SMILES
< 100 nM | Cc1cc(-c2ncnn3cc(-c4ccc(CN5CCC(c6ccc(NC7CCC(=O)NC7=O)cn6)CC5)cc4)cc23)ccc1CNC(=O)c1noc(C(C)(C)C)n1 (centres unmarked) [Example 20, 5-tert-butyl-N-[[4-[6-[4-[[4-[5-[(2,6-dioxo-3-piperidyl)amino]-2-pyridyl]-1-piperidyl]methyl]phenyl]pyrrolo[2,1-f][1,2,4]triazin-4-yl]-2-methyl-phenyl]methyl]-1,2,4-oxadiazole-3-carboxamide]
< 100 nM | Cn1nc(N2CCC(=O)NC2=O)c2ccc(C3CCN(Cc4ccc(-c5cc6c(-c7ccc(CNC(=O)c8noc(C(C)(C)C)n8)c(F)c7)ncnn6c5)cc4F)CC3)cc21 [Example 33, 5-tert-butyl-N-[[4-[6-[4-[[4-[3-(2,4-dioxohexahydropyrimidin-1-yl)-1-methyl-indazol-6-yl]-1-piperidyl]methyl]-3-fluoro-phenyl]pyrrolo[2,1-f][1,2,4]triazin-4-yl]-2-fluoro-phenyl]methyl]-1,2,4-oxadiazole-3-carboxamide]
< 100 nM | Cc1cc(-c2ncnn3cc(-c4ccc(CN5CCC(c6ccc(NC7CCC(=O)NC7=O)cc6)CC5)cc4)cc23)ccc1CNC(=O)c1ccc(C(C)(F)F)cc1 (centres unmarked) [Example 72, 4-(1,1-difluoroethyl)-N-[[4-[6-[4-[[4-[4-[(2,6-dioxo-3-piperidyl)amino]phenyl]-1-piperidyl]methyl]phenyl]pyrrolo[2,1-f][1,2,4]triazin-4-yl]-2-methyl-phenyl]methyl]benzamide]
< 100 nM | CC(C)(C)c1nc(C(=O)NCc2ccc(-c3ncnn4cc(-c5ccc(OCCN6CCC(n7ccc(NC8CCC(=O)NC8=O)n7)CC6)cc5)cc34)cc2F)no1 (centres unmarked) [Example 108, 5-tert-butyl-N-[[4-[6-[4-[2-[4-[3-[(2,6-dioxo-3-piperidyl)amino]pyrazol-1-yl]-1-piperidyl]ethoxy]phenyl]pyrrolo[2,1-f][1,2,4]triazin-4-yl]-2-fluoro-phenyl]methyl]-1,2,4-oxadiazole-3-carboxamide]
100 to 500 nM | Cc1cc(-c2ncnn3cc(N4CCN(C(=O)CC5CC(NC(=O)c6ccc(OC7CCC(=O)NC7=O)cc6)C5)CC4)cc23)ccc1CNC(=O)c1noc(C(C)(C)C)n1 (centres unmarked) [Example 175, 5-(tert-butyl)-N-(4-(6-(4-(2-(3-(4-((2,6-dioxopiperidin-3-yl)oxy)benzamido)cyclobutyl)acetyl)piperazin-1-yl)pyrrolo[2,1-f][1,2,4]triazin-4-yl)-2-methylbenzyl)-1,2,4-oxadiazole-3-]
< 100 nM | Cc1cc(-c2ccnc3cc(CCCCN4CCC(c5ccc(NC6CCC(=O)NC6=O)cc5)CC4)nn23)ccc1CNC(=O)c1noc(C(C)(C)C)n1 (centres unmarked) [Example 163, 5-tert-butyl-N-[[4-[2-[4-[4-[4-[(2,6-dioxo-3-piperidyl)amino]phenyl]-1-piperidyl]butyl]pyrazolo[1,5-a]pyrimidin-7-yl]-2-methyl-phenyl]methyl]-1,2,4-oxadiazole-3-carboxamide]

Further lines, the compound ahead of its results:

SMILES | DC50
Cc1cc(-c2ncnn3cc(-c4ccc(CN5C6CCC5CC(c5ccc(NC7CCC(=O)NC7=O)cc5)C6)cc4)cc23)ccc1CNC(=O)c1noc(C(C)(C)C)n1 (centres unmarked) [Example 6, 5-tert-butyl-N-[[4-[6-[4-[[3-[4-[(2,6-dioxo-3-piperidyl)amino]phenyl]-8-azabicyclo[3.2.1]octan-8-yl]methyl]phenyl]pyrrolo[2,1-f][1,2,4]triazin-4-yl]-2-methyl-phenyl]methyl]-1,2,4-oxadiazole-3-carboxamide] | < 100 nM
CC(C)(C)c1nc(C(=O)NCc2ccc(-c3ncnn4cc(-c5ccc(CN6CCC(CCc7ccc(OC8CCC(=O)NC8=O)cc7)CC6)cn5)cc34)cc2F)no1 (centres unmarked) [Example 239, 5-(tert-butyl)-N-(4-(6-(5-((4-(4-((2,6-dioxopiperidin-3-yl)oxy)phenethyl)piperidin-1-yl)methyl)pyridin-2-yl)pyrrolo [2,1-f][1,2,4]triazin-4-yl)-2-fluorobenzyl)-1,2,4-oxadiazole-3-carboxamide] | < 100 nM
Cc1cc(-c2ncnn3cc(N4CCN(C(=O)C5CC6(CCN(C(=O)c7ccc(OC8CCC(=O)NC8=O)cc7)C6)C5)CC4)cc23)ccc1CNC(=O)c1noc(C(C)(C)C)n1 (centres unmarked) [Example 178, 5-(tert-butyl)-N-(4-(6-(4-(6-(4-((2,6-dioxopiperidin-3-yl)oxy)benzoyl)-6-azaspiro[3.4]octane-2-carbonyl)piperazin-1-yl)pyrrolo[2,1-f][1,2,4]triazin-4-yl)-2-methylbenzyl)-1,2,4-oxadiazole-3-carboxamide] | < 100 nM
Cc1cc(-c2ncnn3cc(-c4ccc(COCCCc5ccc(NC6CCC(=O)NC6=O)cc5)cc4)cc23)ccc1CNC(=O)c1noc(C(C)(C)C)n1 (centres unmarked) [Example 147, 5-tert-butyl-N-[[4-[6-[4-[3-[4-[(2,6-dioxo-3-piperidyl)amino]phenyl]propoxymethyl]phenyl]pyrrolo[2,1-f][1,2,4]triazin-4-yl]-2-methyl-phenyl]methyl]-1,2,4-oxadiazole-3-carboxamide] | 100 to 500 nM
Cc1cc(-c2ncnn3cc(-c4ccc5sc(CN6CCC(c7ccc(C8CCC(=O)NC8=O)cc7)CC6)cc5n4)cc23)ccc1CNC(=O)c1noc(C(C)(C)C)n1 (centres unmarked) [Example 218, 5-(tert-butyl)-N-(4-(6-(2-((4-(4-(2,6-dioxopiperidin-3-yl)phenyl)piperidin-1-yl)methyl)thieno[3,2-b]pyridin-5-yl)pyrrolo[2,1-f] [1,2,4]triazin-4-yl)-2-methylbenzyl)-1,2,4-oxadiazole-3-carboxamide] | 100 to 500 nM
CC(C)(C)c1nc(C(=O)NCc2ccc(-c3ncnn4cc(-c5ccc(CN6CCCCC6Cc6ccc(OC7CCC(=O)NC7=O)cc6)cn5)cc34)cc2F)no1 (centres unmarked) [Example 233, 5-(tert-butyl)-N-(4-(6-(5-((2-(4-((2,6-dioxopiperidin-3-yl)oxy)benzyl)piperidin-1-yl)methyl)pyridin-2-yl)pyrrolo [2,1-f][1,2,4]triazin-4-yl)-2-fluorobenzyl)-1,2,4-oxadiazole-3-carboxamide] | < 100 nM
Cc1cc(-c2ncnn3cc(COCCN4CCC(c5ccc(NC6CCC(=O)NC6=O)cc5)CC4)cc23)ccc1CNC(=O)c1noc(C(C)(C)C)n1 (centres unmarked) [Example 143, 5-tert-butyl-N-[[4-[6-[2-[4-[4-[(2,6-dioxo-3-piperidyl)amino]phenyl]-1-piperidyl]ethoxymethyl]pyrrolo[2,1-f][1,2,4]triazin-4-yl]-2-methyl-phenyl]methyl]-1,2,4-oxadiazole-3-carboxamide] | < 100 nM
CC(C)(C)OC1CN(C(=O)NCc2ccc(-c3ncnn4cc(CCCCN5CCC(c6ccc(NC7CCC(=O)NC7=O)cn6)CC5)cc34)cc2F)C1 (centres unmarked) [Example 135, 3-tert-butoxy-N-[[4-[6-[4-[4-[5-[(2,6-dioxo-3-piperidyl)amino]-2-pyridyl]-1-piperidyl]butyl]pyrrolo[2,1-f][1,2,4]triazin-4-yl]-2-fluoro-phenyl]methyl]azetidine-1-carboxamide] | < 100 nM
CC(C)(C)c1nc(C(=O)NCc2ccc(-c3ncnn4cc(-c5ccc(CN6CCC(Cc7ccc(OC8CCC(=O)NC8=O)cc7)C6)cn5)cc34)cc2F)no1 (centres unmarked) [Example 237, 5-(tert-butyl)-N-(4-(6-(5-((3-(4-((2,6-dioxopiperidin-3-yl)oxy)benzyl)pyrrolidin-1-yl)methyl)pyridin-2-yl)pyrrolo[2,1-f][1,2,4]triazin-4-yl)-2-fluorobenzyl)-1,2,4-oxadiazole-3-carboxamide] | < 100 nM
Cc1cc(-c2ncnn3cc(-c4cn5c(CN6CCC(c7ccc(C8CCC(=O)NC8=O)cc7)CC6)cnc5s4)cc23)ccc1CNC(=O)c1noc(C(C)(C)C)n1 (centres unmarked) [Example 210, 5-(tert-butyl)-N-(4-(6-(5-((4-(4-(2,6-dioxopiperidin-3-yl)phenyl)piperidin-1-yl)methyl)imidazo[2,1-b]thiazol-2-yl)pyrrolo[2,1-f][1,2,4]triazin-4-yl)-2-methylbenzyl)-1,2,4-oxadiazole-3-carboxamide] | 100 to 500 nM
Cc1cc(-c2ncnn3cc(-c4cccc(CCN5CCC(c6ccc(NC7CCC(=O)NC7=O)cc6)CC5)c4)cc23)ccc1CNC(=O)c1noc(C(C)(C)C)n1 (centres unmarked) [Example 54, 5-tert-butyl-N-[[4-[6-[3-[2-[4-[4-[(2,6-dioxo-3-piperidyl)amino]phenyl]-1-piperidyl]ethyl]phenyl]pyrrolo[2,1-f][1,2,4]triazin-4-yl]-2-methyl-phenyl]methyl]-1,2,4-oxadiazole-3-carboxamide] | < 100 nM
Cc1cc(-c2ncnn3cc(-c4ccc(C(=O)Nc5cccc6c5CCN(C5CCC(=O)NC5=O)C6)cc4)cc23)ccc1CNC(=O)c1noc(C(C)(C)C)n1 (centres unmarked) [Example 194, 5-(tert-butyl)-N-(4-(6-(4-((2-(2,6-dioxopiperidin-3-yl)-1,2,3,4-tetrahydroisoquinolin-5-yl)carbamoyl)phenyl)pyrrolo[2,1-f][1,2,4]triazin-4-yl)-2-methylbenzyl)-1,2,4-oxadiazole-3-carboxamide] | < 100 nM
COc1cc(-c2cc3c(-c4ccc(CNC(=O)c5noc(C(C)(C)C)n5)c(C)c4)ncnn3c2)ccc1CN1CCC(c2ccc(NC3CCC(=O)NC3=O)cc2)CC1 (centres unmarked) [Example 16, 5-tert-butyl-N-[[4-[6-[4-[[4-[4-[(2,6-dioxo-3-piperidyl)amino]phenyl]-1-piperidyl]methyl]-3-methoxy-phenyl]pyrrolo[2,1-f][1,2,4]triazin-4-yl]-2-methyl-phenyl]methyl]-1,2,4-oxadiazole-3-carboxamide] | < 100 nM
Cc1cc(-c2ncnn3cc(-c4ccc(CN5CCC(c6ccc(NC7CCC(=O)NC7=O)cc6)CC5)cc4)cc23)ccc1CNC(=O)c1cc2c(s1)CCCC2 (centres unmarked) [Example 71, N— [[4-[6-[4-[[4-[4-[(2,6-dioxo-3-piperidyl)amino]phenyl]-1-piperidyl]methyl]phenyl]pyrrolo[2,1-f][1,2,4]triazin-4-yl]-2-methyl-phenyl]methyl]-4,5,6,7-tetrahydrobenzothiophene-2-carboxamide] | < 100 nM
